Test results reported in patent US9868748B2, “Thiazolopyrrolidine inhibitors of ROR- γ” (Vitae Pharmaceuticals, Inc., priority 2013, dated 2018).
Like-named read-outs stand apart in the source and are kept apart here.

Key:
[1] = molecular target: recombinant RORγ Ligand Binding Domain (LBD) protein (Homo sapiens (Human), UniProt P51449); experiment: Radio-Ligand RORγ Binding Assay (Assay 1); details: competition with 25-hydroxy [26,27-3H]-cholesterol, SPA, read-out: RORγ Binding Ki Range*
Description: Radio-Ligand RORγ Binding Assay (Assay 1)
Compounds of the present invention were tested for ability to bind to RORγ in a cell-free competition assay with commercially available radio-ligand (RL), 25-hydroxy [26,27-^3H]— cholesterol (PerkinElmer, Cat. # NET674250UC), for a ligand binding site on a recombinant RORγ Ligand Binding Domain (LBD) protein expressed as a 6×His-Glutathione-S-Transferase (GST) fusion (“6×His” disclosed as SEQ ID NO: 2). The assay was performed in 96-well SPA plates (PerkinElmer, Cat. #1450-401) in 50 mM HEPES buffer, pH 7.4, containing 150 mM NaCl, 5 mM MgCl2, 10% (v/v) glycerol, 2 mM CHAPS, 0.5 mM β-octylglucopyranoside and 5 mM DTT. Tested compounds were dissolved in DMSO, and semi-log (3.162×) serial dilutions of the compounds were prepared in the same solvent. Two μL of the DMSO solutions were mixed with 28 μL of 8.6 nM 25-hydroxy [26,27-^3H]— cholesterol and 50 μL of 24 nM RORγ LBD. The plate was shaken at 700 rpm for 20 min and incubated for 10 min at rt, after which 40 μL of poly-Lys YSi SPA beads (PerkinElmer, Cat. # RPNQ0010) were added to achieve 50 μg of the beads per well. The plate was incubated on an orbital shaker for 20 min and then for 10 min without agitation at rt. SPA signal for tritium beta radiation was registered on PerkinElmer Microbeta plate reader. Percent inhibition values were calculated based on the high signal obtained with DMSO control and the low signal observed with 10 μM standard RORγ inverse agonist T0901317 (SigmaAldrich, Cat. # T2320). The percent inhibition vs. concentration data were fit into a four-parameter model, and […] values were calculated from the fit as the concentrations corresponding to the inflection points on the dose-response curves. Inhibitory constants (Ki) were calculated using the following equation, where [RL] is the concentration in the assay and KD is a dissociation constant of 25-hydroxy [26,27-^3H]-cholesterol: […]

[2] = molecular target: full-length RORγt in Jurkat cells (Homo sapiens (Human), UniProt P51449); experiment: RORγt 5xRORE Assay in Jurkat Cells (Assay 2); type: cell-based; details: Nanoluc luciferase reporter, 16-18 hrs
full-length RORγt in Jurkat cells, sequence (P51449 other isoform, or with tags, fused parts or gaps): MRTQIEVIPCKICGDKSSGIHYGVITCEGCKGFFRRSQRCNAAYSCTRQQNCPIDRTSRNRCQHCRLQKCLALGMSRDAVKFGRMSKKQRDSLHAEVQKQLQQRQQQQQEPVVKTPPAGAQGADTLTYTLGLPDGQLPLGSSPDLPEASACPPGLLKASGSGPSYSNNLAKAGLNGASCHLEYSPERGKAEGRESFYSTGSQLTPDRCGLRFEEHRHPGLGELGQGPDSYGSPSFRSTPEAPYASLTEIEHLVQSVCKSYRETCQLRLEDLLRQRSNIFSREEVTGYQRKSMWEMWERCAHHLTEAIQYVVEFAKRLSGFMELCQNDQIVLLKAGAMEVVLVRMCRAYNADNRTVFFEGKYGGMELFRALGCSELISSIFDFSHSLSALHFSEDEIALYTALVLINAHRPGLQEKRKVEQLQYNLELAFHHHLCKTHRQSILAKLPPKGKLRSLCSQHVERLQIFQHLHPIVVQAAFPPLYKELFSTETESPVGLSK
Description: [formula] RORγt 5xRORE Assay in Jurkat Cells (Assay 2)
Compounds of the present invention were tested for RORγ inverse agonist activity in a cell-based, transcriptional activity assay. Secreted Nanoluc® luciferase was used as a reporter for transcriptional activity of the full-length RORγt in Jurkat cells (ATCC, Cat. # TIB-152). A reporter plasmid was constructed by inserting 5 repeats of the ROR Response Element (RORE) […] (SEQ ID NO:1) into a commercially available promoterless plasmid pNL1.3[secNluc] (Promega, Cat. # N1021) using KpnI and HindIII restriction sites. The expression plasmid for RORγt was purchased (Geneocopoeia, Cat. # EX-T6988-M02). Jurkat cells (30 million cells) were transfected with 11 μg of EX-T6988-MO2 and 26 μg of the reporter plasmid in OptiMEM® media using Lipofectamine® LTX and Plus™ reagents (Life Technologies, Cat. #15338-100). After 5-6 h of incubation at 37° C./5% CO2, the cells were collected, resuspended in phenol-red free RPMI media containing 10% (v/v) delipidated FBS (Hyclone, Cat. # SH30855.03) and dispensed into 96-well clear bottom tissue culture plates (CoStar, Cat. #3603), at 80,000 cells per well. Tested compounds were added to the cells in the same media (final concentration of DMSO was 0.1% (v/v)), and the plates were incubated at 37° C./5% CO2 for 16-18 hrs. Luciferase activity in the conditioned supernatants was determined with NanoGlo® assay reagents (Promega, Cat. # N1130).

[3] = Table 8, read-out: RORγt5X IC50 Range*
[4] = Table 9, read-out: RORγt5X IC50 Range*

recombinant RORγ Ligand Binding Domain (LBD) protein, sequence (P51449 269-508): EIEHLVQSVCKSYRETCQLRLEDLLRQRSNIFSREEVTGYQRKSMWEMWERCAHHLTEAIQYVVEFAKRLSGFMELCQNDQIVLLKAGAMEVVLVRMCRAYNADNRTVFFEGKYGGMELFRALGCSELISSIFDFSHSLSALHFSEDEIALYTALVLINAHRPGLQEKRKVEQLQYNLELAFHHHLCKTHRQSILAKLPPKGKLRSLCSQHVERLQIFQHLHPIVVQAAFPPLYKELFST

Compound	Ki ([1]; Table 8)	IC50 [2, 3]	Ki ([1]; Table 9)	IC50 [2, 4]
CC(C)[C@H]1c2nc(NC(=O)Cc3ccc(S(C)(=O)=O)cc3)sc2CN1[C@@H](C)c1ccc(C#N)cc1 [I-B15]	< 100 nM	< 100 nM	–	–
CCS(=O)(=O)c1ccc(CC(=O)Nc2nc3c(s2)CN(Cc2ncc(C#N)cc2F)[C@H]3C(C)C)cc1 [I-A46]	< 100 nM	< 100 nM	–	–
CC(C)[C@@H]1c2nc(NC(=O)Cc3ccc(S(C)(=O)=O)cc3)sc2CN1[C@H](C)c1ccc(C(F)(F)F)cc1 (single isomer, unassigned)	–	–	100 to 1000 nM	100 to 1000 nM
CCS(=O)(=O)c1ccc(CC(=O)Nc2nc3c(s2)CN(C2CCC(C(F)(F)F)CC2)[C@H]3C(C)C)cc1 (stereo partly shown)	–	–	< 100 nM	100 to 1000 nM
CCS(=O)(=O)c1ccc(CNC(=O)c2nc3c(s2)CN(Cc2ccc(-c4nnn(C)n4)cc2)[C@H]3C(C)C)cc1 [I-J3]	< 100 nM	< 100 nM	–	–
CC(C)[C@H]1c2nc(NC(=O)Cc3ccc(S(C)(=O)=O)cc3)sc2CN1[C@@H](C)c1ccc(C#N)c(F)c1 (single isomer, unassigned)	–	–	< 100 nM	< 100 nM
CCS(=O)(=O)c1ccc(CC(=O)Nc2nc3c(s2)CN(C[C@H]2CC[C@@H](C(F)(F)F)N(C)C2)C3C(C)C)cc1 (single isomer, unassigned)	–	–	< 100 nM	> 1000 nM
CCS(=O)(=O)c1ccc(CC(=O)Nc2nc3c(s2)CN(Cc2ncc(C(F)(F)F)cn2)[C@H]3C(C)C)cc1 [I-A6]	< 100 nM	< 100 nM	–	–
CC(C)[C@@H]1c2nc(NC(=O)Cc3ccc(S(C)(=O)=O)cc3)sc2CN1Cc1ccc(C(F)(F)F)cc1F	–	–	100 to 1000 nM	100 to 1000 nM
CCS(=O)(=O)c1ccc(CC(=O)Nc2nc3c(s2)CN(Cc2ccc(C)nn2)[C@H]3C(C)C)cc1	–	–	< 100 nM	> 1000 nM
CC(C)[C@H]1c2nc(NC(=O)Cc3ccc(S(C)(=O)=O)cc3)sc2CN1[C@H](C)c1ccc(C#N)cc1 [I-B14]	< 100 nM	< 100 nM	–	–
CCS(=O)(=O)c1ccc(CC(=O)Nc2nc3c(s2)CN(Cc2ccc(OC(F)F)cc2)[C@H]3C(C)C)cc1 [I-A1, (S)—N-(5-(4-(difluoromethoxy)benzyl)-4-isopropyl-5,6-dihydro-4H-pyrrolo[3,4-d]thiazol-2-yl)-2-(4-(ethylsulfonyl)phenyl)acetamide]	< 100 nM	< 100 nM	–	–
CC[C@@H]1c2nc(NC(=O)Cc3ccc(S(=O)(=O)CC)cc3)sc2CN1Cc1ccc2c(c1)OCO2	–	–	< 100 nM	> 1000 nM
CC(C)[C@H]1c2nc(NC(=O)Cc3ccc(S(C)(=O)=O)cc3)sc2CN1[C@H](C)c1ccc(C#N)c(F)c1 [I-B11]	< 100 nM	< 100 nM	–	–
CCS(=O)(=O)c1ccc(CC(=O)Nc2nc3c(s2)CN(Cc2ccc(-c4nnn(C)n4)cc2)[C@H]3C(C)C)cc1 [I-A42]	< 100 nM	< 100 nM	–	–
CCS(=O)(=O)c1ccc(CC(=O)Nc2nc3c(s2)CN(Cc2ccn(C4CC4)c(=O)c2)[C@H]3C(C)C)cc1	–	–	< 100 nM	100 to 1000 nM
CCOc1ccc(CN2Cc3sc(NC(=O)Cc4ccc(S(=O)(=O)CC)cc4)nc3[C@H]2CC)cc1	–	–	< 100 nM	100 to 1000 nM
CCS(=O)(=O)c1ccc(CC(=O)Nc2nc3c(s2)CN(CC2CCS(=O)(=O)CC2)[C@H]3C(C)C)cc1	–	–	< 100 nM	> 1000 nM
CCS(=O)(=O)c1ccc(CC(=O)Nc2nc3c(s2)CN(Cc2ccc(=O)n(C(F)F)c2)[C@H]3C(C)C)cc1	–	–	< 100 nM	> 1000 nM
CCS(=O)(=O)c1ccc(CC(=O)Nc2nc3c(s2)CN(C[C@@H]2CC[C@H](C(F)(F)F)OC2)[C@H]3C(C)C)nc1 (single isomer, unassigned)	–	–	< 100 nM	> 1000 nM
CCS(=O)(=O)c1ccc(CC(=O)Nc2nc3c(s2)CN(c2nc(C)cc(C(F)(F)F)n2)[C@@H]3C(C)C)cc1	–	–	< 100 nM	> 1000 nM
CCS(=O)(=O)c1ccc(CC(=O)Nc2nc3c(s2)CN(C[C@H]2CC[C@@H](C(F)(F)F)CC2)C3C(C)C)cc1 (stereo partly shown)	–	–	< 100 nM	> 1000 nM
CC(C)[C@H]1c2nc(C(=O)NCc3ccc(S(C)(=O)=O)cc3)sc2CN1Cc1ccc(F)cc1	–	–	< 100 nM	> 1000 nM
CCS(=O)(=O)c1ccc(CNC(=O)c2nc3c(s2)CN(Cc2ccc(C#N)cc2)[C@H]3C(C)C)cc1 [I-J2]	< 100 nM	< 100 nM	–	–
CCS(=O)(=O)c1ccc(CC(=O)Nc2nc3c(s2)CN(Cc2ccc(C(F)(F)F)cc2)[C@H]3C(C)C)cc1 [I-A2, (S)-2-(4-(ethylsulfonyl)phenyl)-N-(4-isopropyl-5-(4-(trifluoromethyl)benzyl)-5,6-dihydro-4H-pyrrolo[3,4-d]thiazol-2-yl)acetamide]	< 100 nM	< 100 nM	–	–
CCS(=O)(=O)c1ccc(CC(=O)Nc2nc3c(s2)CN(C[C@H]2CC[C@H](O)CC2)[C@H]3C(C)C)cc1	–	–	< 100 nM	< 100 nM
CCS(=O)(=O)c1ccc(CC(=O)Nc2nc3c(s2)CN(C[C@@H]2CC[C@@H](C(F)(F)F)OC2)[C@H]3C(C)C)cc1 [I-A26]	< 100 nM	< 100 nM	–	–

The next lines start with the values.

Ki ([1]; Table 8)	IC50 [2, 3]	Ki ([1]; Table 9)	IC50 [2, 4]	Compound
–	–	< 100 nM	> 1000 nM	CC(C)[C@@H]1c2nc(NC(=O)Cc3ccc(S(C)(=O)=O)cc3)sc2CN1Cc1cccc(F)c1
–	–	< 100 nM	< 100 nM	CCS(=O)(=O)c1ccc(CC(=O)Nc2nc3c(s2)CN(Cc2ccn(C(F)F)c(=O)c2)[C@H]3C(C)C)cc1
–	–	< 100 nM	< 100 nM	CCS(=O)(=O)c1ccc(CC(=O)Nc2nc3c(s2)CN(Cc2ccn(CC(F)(F)F)c(=O)c2)[C@H]3C(C)C)cc1
–	–	< 100 nM	< 100 nM	CCS(=O)(=O)c1ccc(CC(=O)Nc2nc3c(s2)CN([C@H](C)c2ccc(C#N)cn2)[C@H]3C(C)C)cc1 (single isomer, unassigned)
< 100 nM	< 100 nM	–	–	CCS(=O)(=O)c1ccc(CC(=O)Nc2nc3c(s2)CN(Cc2ccc(C(F)(F)F)nc2)[C@H]3C(C)C)cc1 [I-A62]
–	–	< 100 nM	> 1000 nM	CCS(=O)(=O)c1ccc(CNC(=O)c2nc3c(s2)CN(C[C@H]2CC[C@@H](C(F)(F)F)CC2)[C@H]3C(C)C)cc1 (relative stereo)
–	–	100 to 1000 nM	> 1000 nM	CC(C)[C@@H]1c2nc(NC(=O)Cc3ccc(S(C)(=O)=O)cc3)sc2CN1Cc1ccc(OC(F)(F)F)cc1
–	–	< 100 nM	< 100 nM	CCS(=O)(=O)c1ccc(CC(=O)Nc2nc3c(s2)CN(C[C@H]2CC[C@H](C#N)CC2)[C@H]3C(C)C)cc1
< 100 nM	< 100 nM	–	–	Cc1nc(C(F)(F)F)ccc1CN1Cc2sc(NC(=O)Cc3ccc(S(C)(=O)=O)cc3)nc2[C@@H]1C(C)C [I-B13]
–	–	100 to 1000 nM	100 to 1000 nM	CC(C)[C@@H]1c2nc(NC(=O)Cc3ccc(S(C)(=O)=O)cc3)sc2CN1Cc1ccc(OC(F)F)cc1
–	–	100 to 1000 nM	> 1000 nM	CCS(=O)(=O)c1ccc(CC(=O)Nc2nc3c(s2)CN(C[C@H]2CC[C@@H](C(=O)O)CC2)[C@H]3C(C)C)cc1
< 100 nM	< 100 nM	–	–	CCS(=O)(=O)c1ccc(CC(=O)Nc2nc3c(s2)CN(Cc2ccc(C(F)F)cc2)[C@H]3C(C)C)cc1 [I-A61]
–	–	< 100 nM	> 1000 nM	CCS(=O)(=O)c1ccc(CC(=O)Nc2nc3c(s2)CN(C[C@H]2CC[C@](C)(C#N)CC2)[C@H]3C(C)C)nc1 (single isomer, unassigned)
–	–	< 100 nM	< 100 nM	CC(C)[C@H]1c2nc(NC(=O)Cc3ccc(S(C)(=O)=O)cc3)sc2CN1Cc1ccc(-c2nnnn2C)cc1
